Laboratory results as given in US20050096360A1, “Inhibitors of semicarbazide-sensitive amine oxidase (SSAO) and VAP-1 mediated adhesion useful for treatment of diseases” (priority 2003, published 2005).
Where a name gives a salt, the structure may show the parent alone.

Tests used:
EAE in C57BL/6 mice = experiment: Experimental autoimmune encephalomyelitis (EAE), MOG 35-55; assay type: in vivo; conditions: separate experiment, same protocol, FIG. 3
Method: SSAO/VAP-1 is expressed on the endothelium of inflamed tissues/organs including brain and spinal cord. Its ability to support lymphocyte transendothelial migration may be an important systemic function of SSAO/VAP-1 in inflammatory diseases such as multiple sclerosis and Alzheimer's disease. An analysis of the use of SSAO inhibitors to treat inflammatory disease of the central nervous system (CNS) was performed through the use of an experimental autoimmune encephalomyelitis model (EAE) in C57BL/6 mice. EAE in rodents is a well-characterized and reproducible animal model of multiple sclerosis in human (Benson J. M. et al. (2000) J. Clin. Invest. 106:1031). Multiple sclerosis is a chronic immune-mediated disease of the CNS characterized by pachy perivenular inflammatory infiltrates in areas of demyelination and axonal loss. As an animal model, EAE can be induced in mice by immunization with encephalitogenic myelin antigens in the presence of adjuvant. The pathogenesis of EAE comprises presentation of myelin antigens to T cells, migration of activated T cells to the CNS, and development of inflammation and/or demyelination upon recognition of the same antigens.
Thirty female C57BL/6 mice were immunized subcutaneously (s.c). with myelin oligodendrocyte glycoprotein 35-55 (MOG peptide 35-55) in Complete Freund Adjuvant (CFA) on day 0, followed by i.p. injections of pertussis toxin (one pertussis toxin injection on day 0, a second pertussis toxin injection on day 2). Groups of 10 mice received either the allylamine compound mofegiline (AA, 10 mg/kg/dose, twice daily for 18 consecutive days), methotrexate (2.5 mg/kg/day, every other day (Mon., Weds., Fri.) till day 18) or vehicle control (twice/day for 18 consecutive days) all-starting from one day after the immunization and all administered i.p. Then animals were monitored for body weight, signs of paralysis and death according to a 0-5 scale of scoring system as follows: 1=limp tail or waddling gait with tail tonicity; 2=waddling gait with limp tail (ataxia); 2.5=ataxia with partial limb paralysis; 3=full paralysis of one limb; 3.5=full paralysis of one limb with partial paralysis of second limb; 4=full paralysis of two limbs; 4.5=moribund; 5=death. Results are shown in FIG. 2A, FIG. 2B, and FIG. 2C. […] (p=0.04 by repeated measure analysis to assess the treatment effect. Proper polynomial transformation, with the spacing corresponding to the collection days, was applied to test the time effect). Statistically significant differences in diseases severity between the AA and vehicle-treated groups, continued even after stopping compound administration and were observed until the end of the study (d25) .

[1] = tested on: oxazolone-induced colitis in SJL/J mice
Method: Oxazolone colitis is induced as described (Fuss I. J. et al. (2002) J. Immunol. 168: 900). Briefly, mice are pre-sensitized by skin epicutaneous application of 3% oxazolone (4-ethoxymethylene-2-phenyl-2oxazolin-5-one, Sigma) in 100% EtOH (150 μl) on day 0, followed by intrarectal administration of 1% oxazolone in 50% EtOH (100 μl) to anesthetized SJL/J male mice on day 5 through a 3.5 F catheter inserted 4 cm proximal to the anal verge. Mice are divided in three treatment groups and injected i.p. twice a day with: PBS and a compound of the invention. Injections are initiated at day 0 and are continued through day 7 or the end of the study.
A study was carried out using the protocol in Example 20 for oxazolone-induced colitis. Injections were initiated at day 0 and were continued through the end of the study. Disease progression was evaluated for 12 days (6 days after intrarectal administration) by monitoring survival rates and body weight, as well as by macroscopic evidence of colitis (i.e. rectal prolapse, colon size, colon weight). (2-phenylallyl)hydrazine was administered at 10 mg/kg, i.p. twice a day, starting on the day of skin pre-sensitization (day 0). […] Kaplan-Meyer survival curves and unpaired t tests were calculated using GraphPad Prism software (San Diego, Calif.).
Thus, animals from a similar study were sacrificed seven days after initial sensitization and their colons removed and fixed in […]. Tissue processing and analysis were performed blindly at a contract laboratory (Pathology Associates, Frederick, Md.). Briefly, after paraffin embedding 5 μm sections were cut and stained with hematoxylin and eosin. Three cross sections were taken from each animal at 1 cm (section 1), 3 cm (section 2), and 6 cm (section 3) from the anus. The degrees of ulceration, inflammation (in mucosa, submucosa, serosa, and outer muscular layers) and epithelial injury (including mucosal and submucosal abscess, submucosal fibrosis, glandular distortion and mucosal and submucosal edema/hemorrhage), were graded semiquantitatively as 0—absent; 1—minimal; 2—mild; 3—moderate; 4—marked. […] Kaplan-Meyer survival curves were calculated using GraphPad Prism software (San Diego, Calif.).

[2] = 10 mg/kg i.p. twice a day from day 0, vs vehicle
[3] = day 7, 20 mg/kg/day from day 0, section 2

C=C(CNN)c1ccccc1 [Example 2, Hydrochloride]
development and severity of disease (EAE in C57BL/6 mice): clearly had a therapeutic effect
body weight loss [1, 2]: significantly improved
survival rates [1, 2]: significantly improved
inflammatory index (histology) [1, 3]: significant effect
ulceration index (histology) [1, 3]: significant effect
